Results published in patent US20240116985A1, “STAPLED PEPTIDES AND METHODS THEREOF” (priority 2020, published 2024).
Like-named read-outs stand apart in the source and are kept apart here.

Tests used:
[1] = target: T1, full-length beta-Catenin (Uniprot ID P35222) (Homo sapiens, UniProt P35222); test: Fluorescence polarization IC50 (beta-catenin / 5FAM-TCF4 10-53 competition); format: binding; conditions: fluorescence polarization
T1 construct: 10 nM full-length beta-Catenin (Uniprot ID P35222)
T1 sequence (P35222 1-781): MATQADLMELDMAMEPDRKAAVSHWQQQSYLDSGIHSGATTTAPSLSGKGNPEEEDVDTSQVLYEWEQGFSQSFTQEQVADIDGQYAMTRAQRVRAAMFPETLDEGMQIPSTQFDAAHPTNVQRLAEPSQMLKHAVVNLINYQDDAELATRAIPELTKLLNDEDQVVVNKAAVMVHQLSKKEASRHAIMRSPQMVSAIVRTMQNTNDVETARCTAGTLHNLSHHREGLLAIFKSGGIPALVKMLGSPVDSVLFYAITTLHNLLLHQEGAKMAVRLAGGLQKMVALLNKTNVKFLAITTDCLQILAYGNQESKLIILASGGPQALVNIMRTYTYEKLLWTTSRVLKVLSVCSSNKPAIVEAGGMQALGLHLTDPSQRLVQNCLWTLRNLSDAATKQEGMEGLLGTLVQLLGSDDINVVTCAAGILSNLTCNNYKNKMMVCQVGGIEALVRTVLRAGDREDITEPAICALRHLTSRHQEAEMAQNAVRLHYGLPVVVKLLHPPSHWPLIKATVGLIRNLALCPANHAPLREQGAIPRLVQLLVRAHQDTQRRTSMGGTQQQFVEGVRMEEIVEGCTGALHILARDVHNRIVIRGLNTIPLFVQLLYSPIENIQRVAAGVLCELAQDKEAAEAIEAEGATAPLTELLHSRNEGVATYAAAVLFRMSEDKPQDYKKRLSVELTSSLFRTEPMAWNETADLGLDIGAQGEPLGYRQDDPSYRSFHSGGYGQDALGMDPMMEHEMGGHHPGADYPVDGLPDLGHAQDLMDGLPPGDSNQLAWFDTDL

[2] = target: T2, beta-catenin/TCF4 engagement (Homo sapiens, UniProt P35222); test: Nano-BRET target engagement assay (B-cat-Halo & TCF4-Luc in HEK293 cells); format: cell-based; conditions: read-out: NanoBRET Abs IC50
T2 construct: expressed in transfected cells; host or cells: HEK293
T2 sequence (P35222 1-781): T1 sequence (P35222 1-781)

Structure (SMILES)	IC50 ([1]; read-out: beta-Catenin FP IC50) [nM]	IC50 ([2]; absolute IC50) [nM]	IC50 ([1]; beta-catenin, read-out: FP EC50) [nM]	IC50 [2] [nM]
CC(=O)N1CCC[C@]12CC=CCCCC1(CCCC=CCCCCCC[C@@](C)(C(=O)N[C@@H](Cc3ccccc3)C(=O)N[C@@H](Cc3csc4ccccc34)C(=O)N[C@@H](CCC(N)=O)C(N)=O)NC(=O)[C@H](CCC(N)=O)NC(=O)[C@H](Cc3ccccc3)NC(=O)[C@H](C)NC(=O)[C@H](C)NC(=O)[C@H](CCC(=O)O)NC(=O)[C@H](CC(=O)O)NC1=O)NC(=O)[C@H](CCO)NC(=O)[C@H](CC(=O)O)NC2=O (stereo partly drawn) [I-1545, Ac-PL3-Asp-Hse-B5-Asp-Glu-Ala-Ala-Phe-Gln-S8-Phe-BztA-Gln-NH2]	26	> 20000	–	–
CC(=O)N1CCC[C@]12CC=CCCCC1(CCCC=CCCCOC(=O)N3CC[C@@](C(=O)N[C@@H](Cc4ccccc4C(F)(F)F)C(=O)N[C@@H](Cc4ccc(Cl)cc4)C(=O)N[C@@H](C)C(N)=O)(C3)NC(=O)[C@H](CC(C)C)NC(=O)[C@H](Cc3ccccc3)NC(=O)[C@H](C)NC(=O)[C@H](CCC(N)=O)NC(=O)[C@H](Cc3cccc(C(=O)O)c3)NC(=O)[C@H](CC(=O)O)NC1=O)NC(=O)[C@H](CC(C)(C)C)NC(=O)[C@H](CC(=O)O)NC2=O (stereo partly drawn) [I-2223, Ac-PL3-Asp-Npg-B5-Asp-3COOHF-Gln-Ala-Phe-Leu-PyrS2-2F3MeF-4C1F-Ala-NH2]	50	9000	–	–
CC(=O)N1CCC[C@]12CC=CCCCC1(CCCC=CCCCCCC[C@@](C)(C(=O)N[C@@H](Cc3ccsc3)C(=O)N[C@@H](Cc3csc4ccccc34)C(=O)N[C@@H](CCC(N)=O)C(N)=O)NC(=O)[C@H](CC(N)=O)NC(=O)[C@H](Cc3ccccc3)NC(=O)[C@H](C)NC(=O)[C@H](C)NC(=O)[C@H](CN(CCCC(F)(F)F)CC(=O)O)NC(=O)[C@H](CC(=O)O)NC1=O)NC(=O)[C@H](CC(C)(C)C)NC(=O)[C@H](CC(=O)O)NC2=O (stereo partly drawn) [I-1454, Ac-PL3-Asp-Npg-B5-Asp-[Tfb]GA-Ala-Ala-Phe-Asn-S8-3Thi-BztA-Gln-NH2]	22	26800	22	–
CCCC[C@@H]1NC(=O)[C@H](Cc2ccccc2)NC(=O)[C@H](C)NC(=O)C(C)(C)NC(=O)[C@H](Cc2cccc(C(=O)O)c2)NC(=O)[C@H](CC(=O)O)NC(=O)C2(CCCC=CCCCOC(=O)N3CC[C@@](C(=O)N[C@@H](Cc4ccsc4)C(=O)N[C@@H](Cc4csc5ccccc45)C(=O)N[C@@H](CCC(=O)N(CCOC)CCOC)C(N)=O)(C3)NC1=O)CCCC=CC[C@]1(CCCN1C(C)=O)C(=O)N[C@@H](CC(=O)O)C(=O)N[C@@H](CC(C)(C)C)C(=O)N2 (stereo partly drawn) [I-2554, Ac-PL3-Asp-Npg-B5-Asp-3COOHF-Aib-Ala-Phe-nLeu-PyrS2-3Thi-BztA-[bismethoxyethylamine]GlnR-NH2]	8	3300	–	–
CC(=O)N1CCC[C@]12CC=CCCCC1(CCCC=CCCCOC(=O)N3CC[C@@](C(=O)N[C@@H](Cc4ccccc4)C(=O)N[C@@H](Cc4csc5ccccc45)C(=O)N[C@@H](C)C(N)=O)(C3)NC(=O)[C@H](CC(N)=O)NC(=O)[C@H](Cc3ccccc3)NC(=O)[C@H](C)NC(=O)[C@H](Cc3c[nH]cn3)NC(=O)[C@H](CCC(N)=O)NC(=O)[C@H](CC(=O)O)NC1=O)NC(=O)[C@H](CC1CCCCC1)NC(=O)[C@H](CC(N)=O)NC2=O (stereo partly drawn) [I-2069, Ac-PL3-Asn-Cha-B5-Asp-Gln-His-Ala-Phe-Asn-PyrS2-Phe-BztA-Ala-NH2]	256	–	–	> 20000
CC(=O)N1CCC[C@]12CC=CCCCC1(CCCC=CCCCOC(=O)N3CC[C@@](C(=O)N[C@@H](Cc4ccccc4)C(=O)N[C@@H](Cc4csc5ccccc45)C(=O)N[C@@H](CCCCN)C(N)=O)(C3)NC(=O)[C@H](CC(C)C)NC(=O)[C@H](Cc3ccccc3)NC(=O)[C@H](C)NC(=O)[C@H](CCCCNC(C)C)NC(=O)[C@H](CCC(N)=O)NC(=O)[C@H](CC(=O)O)NC1=O)NC(=O)[C@H](CC1CCCCC1)NC(=O)[C@H](CC(N)=O)NC2=O (stereo partly drawn) [I-2350, Ac-PL3-Asn-Cha-B5-Asp-Gln-iPrLys-Ala-Phe-Leu-PyrS2-Phe-BztA-Lys-NH2]	63	> 20000	–	–
CC(=O)N1CCC[C@]12CC=CCCCC1(CCCC=CCCCOC(=O)N3CC[C@@](C(=O)N[C@@H](Cc4ccsc4)C(=O)N[C@@H](Cc4csc5ccccc45)C(=O)N[C@@H](CO)C(N)=O)(C3)NC(=O)[C@H](Cc3ccccc3)NC(=O)[C@H](Cc3ccccc3)NC(=O)[C@H](C)NC(=O)[C@H](C)NC(=O)[C@H](Cc3ccccc3C(=O)O)NC(=O)[C@H](CC(=O)O)NC1=O)NC(=O)[C@H](CC(C)(C)C)NC(=O)[C@H](CC(=O)O)NC2=O (single isomer, unassigned) [I-1665, Ac-PL3-Asp-Npg-B5-Asp-2COOHF-Ala-Ala-Phe-Phe-PyrS2-3Thi-BztA-Ser-NH2]	17	9700	–	–
CC(=O)N1CCC[C@]12CC=CCCCC1(CCCC=CCCCOC(=O)N3CC[C@@](C(=O)N[C@@H](Cc4ccsc4)C(=O)N[C@@H](Cc4csc5ccccc45)C(=O)N[C@@H](CCC(N)=O)C(N)=O)(C3)NC(=O)[C@H](CC(C)C)NC(=O)[C@H](Cc3cccc(C(=O)O)c3)NC(=O)[C@H](C)NC(=O)[C@H](C)NC(=O)[C@H](Cc3ccc(O)cc3)NC(=O)[C@H](CC(=O)O)NC1=O)NC(=O)[C@H](CC(C)(C)C)NC(=O)[C@H](CC(=O)O)NC2=O (stereo partly drawn) [I-2126, Ac-PL3-Asp-Npg-B5-Asp-Tyr-Ala-Ala-3COOHF-Leu-PyrS2-3Thi-BztA-Gln-NH2]	68	–	–	29500

The remaining molecules from weak to strong by IC50 ([1]; read-out: beta-Catenin FP IC50), led by results:

IC50 ([1]; read-out: beta-Catenin FP IC50) [nM]	IC50 ([2]; absolute IC50) [nM]	IC50 ([1]; beta-catenin, read-out: FP EC50) [nM]	IC50 [2] [nM]	Structure (SMILES)
49	11900	–	–	CC(=O)N1CCC[C@]12CC=CCCCC1(CCCC=CCCCOC(=O)N3CC[C@@](C(=O)N[C@@H](Cc4ccccc4Cl)C(=O)N[C@@H](Cc4csc5ccccc45)C(=O)N[C@@H](CCCN4CCC(F)(F)CC4)C(N)=O)(C3)NC(=O)[C@H]([C@@H](C)O)NC(=O)[C@H](Cc3ccccc3)NC(=O)[C@H](C)NC(=O)[C@H](C)NC(=O)[C@H](CN(CC(=O)O)CC(F)(F)F)NC(=O)[C@H](CC(=O)O)NC1=O)NC(=O)[C@H](CC(C)(C)C)NC(=O)[C@H](CC(=O)O)NC2=O (stereo partly drawn) [I-1607, Ac-PL3-Asp-Npg-B5-Asp-TfeGA-Ala-Ala-Phe-Thr-PyrS2-2C1F-BztA-F2PipNva-NH2]
49	> 20000	–	–	CC(=O)N1CCC[C@]12CC=CCCCC1(CCCC=CCCCCCC[C@@](C)(C(=O)N[C@@H](Cc3ccccc3)C(=O)N[C@@H](Cc3csc4ccccc34)C(=O)N[C@@H](CCC(N)=O)C(N)=O)NC(=O)[C@H](CCC(N)=O)NC(=O)[C@H](Cc3ccccc3)NC(=O)[C@H](C)NC(=O)[C@H](C)NC(=O)[C@H](CCC(=O)O)NC(=O)[C@H](CC(=O)O)NC1=O)NC(=O)[C@H](CC(N)=O)NC(=O)[C@H](CC(=O)O)NC2=O (stereo partly drawn) [I-1532, Ac-PL3-Asp-Asn-B5-Asp-Glu-Ala-Ala-Phe-Gln-S8-Phe-BztA-Gln-NH2]
16	8900	–	–	CC(=O)N1CCC[C@]12CC=CCCCC1(CCCC=CCCCOC(=O)N3CC[C@@](C(=O)N[C@@H](Cc4ccsc4)C(=O)N[C@@H](Cc4cccc(Br)c4)C(=O)N[C@@H](CCC(N)=O)C(N)=O)(C3)NC(=O)[C@H](CC(C)C)NC(=O)[C@H](Cc3ccccc3)NC(=O)[C@H](C)NC(=O)[C@H](C)NC(=O)[C@H](Cc3cccc(C(=O)O)c3)NC(=O)[C@H](CC(=O)O)NC1=O)NC(=O)[C@H](CC(C)(C)C)NC(=O)[C@H](CC(=O)O)NC2=O (stereo partly drawn) [I-2307, Ac-PL3-Asp-Npg-B5-Asp-3COOHF-Ala-Ala-Phe-Leu-PyrS2-3Thi-3BrF-Gln-NH2]
